| melting point [°C] | Compound |
| --- | --- |
| 83.2 to 86.3 | COc1ccc(/C=C\c2cc(OC)cc(OC)c2N)cc1 |
| 62.7 to 63.8 | COc1ccc(/C=C\c2cc(OC)c(OC)cc2N)cc1 |
| 97.3 to 98.1 | COc1ccc(/C=C\c2cc(OC)c(OC)c(OC)c2N)cc1N |

Source: patent US7560491B2, “Z-stilbenes derivatives and the pharmaceutical composition thereof” (Taipei Medical University, priority 2006, dated 2009)
